Assay results reported in article PMC8808171, “Nonselective TRPC channel inhibition and suppression of aminoglycoside-induced premature termination codon readthrough by the small molecule AC1903” (The Journal of Biological Chemistry, 2022).

What was measured:
[1] = test system: JEB01 keratinocytes (COL17A1 R688X); test: G418-induced PTC readthrough (Collagen XVII, Western blot) in JEB01 keratinocytes; type: cell-based, human; conditions: pretreatment 150 μM AC1903, increasing concentrations of G418 (Fig. 2E)
Method: (§1) Figure 2 Effect of AC1903 on PTC readthrough and G418 trafficking.A and B, DMS-114 (A) or TC-71 (B) cells were pretreated with indicated concentrations of AC1903 for 3 h followed by exposure to 400 μg/ml G418. After 3 h medium was replenished and at 24 h cell lysates were prepared and p53 levels were measured. C and E, DMS-114 (C) or JEB01 (E) cells were either left untreated or pretreated with 150 μM AC1903 for 3 h followed by exposure to indicated concentrations of G418 for another 3 h. At 24 h cell lysates were prepared and p53 (C) or Collagen XVII (E) levels were measured. In panels A–C, protein levels were measured by automated capillary electrophoresis Western analysis (using vinculin as loading control). In panel E, protein levels were measured by Western blot (using beta-actin as loading control). […] D, total intracellular levels of G418 were measured in the same lysates as in (C) (n = 5; data normalized to the highest response in each experiment; bars represent mean ± SD). F, total intracellular levels of G418 were measured in the same lysates as in (E) (n = 2; data normalized to the highest response in each experiment; bars represent mean ± SD). ∗ indicates statistically significant difference between samples according to one-way ANOVA (p < 0.05). […]

JEB01 keratinocytes = test: Measurement of intracellular G418 (gentamicin ELISA) in JEB01 keratinocytes; type: cell-based, human; conditions: 150 μM AC1903 (Fig. 2F)
Method: as §1

SMILES: c1ccc(Cn2c(NCc3ccco3)nc3ccccc32)cc1 [AC1903]
- decline of full-length Collagen XVII [1]: 45–80%
- intracellular G418 levels in cells exposed to AC1903 (JEB01 keratinocytes): significantly declined
